Laboratory results: patent publication US10577368B2 (The United States of America, as represented by the …, priority 2013, dated 2020)
Values joined by “and” are separate entries in the source; they are usually repeats but may differ in a detail not shown here. Equal values may be shown once. Read-outs that look alike come from different tables or passages of the source.

Assays:
hM2 muscarinic receptor = hM2 muscarinic receptor (Homo sapiens (Human), UniProt P08172); assay: Off-target binding, M2
h5HT2B = h5HT2B (Homo sapiens (Human), UniProt P41595); assay: Off-target binding, 5HT2B
[1] = molecular target: Alpha 2B adrenergic receptor (Homo sapiens (Human), UniProt P18089); assay: Off-target binding, α2B
Chain of Alpha 2B adrenergic receptor (P18089 whole entry): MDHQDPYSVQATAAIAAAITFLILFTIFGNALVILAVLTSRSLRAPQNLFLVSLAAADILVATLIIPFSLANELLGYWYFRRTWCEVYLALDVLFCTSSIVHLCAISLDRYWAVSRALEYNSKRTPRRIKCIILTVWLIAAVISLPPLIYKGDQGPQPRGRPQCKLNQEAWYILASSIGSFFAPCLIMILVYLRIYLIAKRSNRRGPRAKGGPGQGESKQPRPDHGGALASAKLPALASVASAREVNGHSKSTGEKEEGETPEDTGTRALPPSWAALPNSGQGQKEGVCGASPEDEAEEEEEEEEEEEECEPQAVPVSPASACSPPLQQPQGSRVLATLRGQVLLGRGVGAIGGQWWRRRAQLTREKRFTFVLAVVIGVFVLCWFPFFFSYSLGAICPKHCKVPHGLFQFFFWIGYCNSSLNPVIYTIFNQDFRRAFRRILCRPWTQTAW
Source text: (§1) The results are set forth below.

DOR opiate receptor = DOR opiate receptor (Homo sapiens (Human), UniProt P41143); assay: Off-target binding, DOR
Chain of DOR opiate receptor (P41143 whole entry): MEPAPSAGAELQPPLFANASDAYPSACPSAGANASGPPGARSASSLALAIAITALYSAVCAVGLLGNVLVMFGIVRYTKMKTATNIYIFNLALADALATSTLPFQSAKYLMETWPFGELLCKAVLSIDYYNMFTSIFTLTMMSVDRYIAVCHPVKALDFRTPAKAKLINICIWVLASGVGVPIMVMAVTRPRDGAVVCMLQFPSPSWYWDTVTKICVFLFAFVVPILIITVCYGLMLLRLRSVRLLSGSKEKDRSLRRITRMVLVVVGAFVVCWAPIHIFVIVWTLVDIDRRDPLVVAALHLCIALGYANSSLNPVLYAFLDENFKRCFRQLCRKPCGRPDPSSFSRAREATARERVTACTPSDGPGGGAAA

PBR = PBR (Homo sapiens (Human), UniProt P30536); assay: Off-target binding, PBR; conditions: for Ki: off-target binding; for Interaction at PBR: 10 μM
Chain of PBR (P30536 whole entry, species assumed): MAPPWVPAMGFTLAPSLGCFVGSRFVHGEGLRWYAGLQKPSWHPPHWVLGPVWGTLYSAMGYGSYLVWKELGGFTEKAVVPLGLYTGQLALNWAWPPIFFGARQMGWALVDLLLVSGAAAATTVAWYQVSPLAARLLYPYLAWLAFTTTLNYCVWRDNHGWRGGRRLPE
Source text: as §1

r Sigma 2 = r Sigma 2 (Rattus norvegicus (Rat), UniProt Q5U3Y7); assay: Off-target binding, Sigma-2; conditions: for Ki: off-target binding; for Interaction at Sigma-2: 10 μM
Chain of r Sigma 2 (Q5U3Y7 whole entry): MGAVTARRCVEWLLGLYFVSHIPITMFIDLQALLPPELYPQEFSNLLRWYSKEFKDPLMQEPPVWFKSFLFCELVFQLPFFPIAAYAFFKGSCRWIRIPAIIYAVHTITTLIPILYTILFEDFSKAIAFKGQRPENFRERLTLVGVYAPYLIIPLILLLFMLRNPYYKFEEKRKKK
Source text: as §1

h5HT2C = h5HT2C (Homo sapiens, UniProt P28335); assay: Off-target binding, 5HT2C
[2] = molecular target: h Beta 3 adrenergic receptor (Homo sapiens (Human), UniProt P13945); assay: Off-target binding, β3
h5HT1A = h5HT1A (Homo sapiens (Human), UniProt P08908); assay: Off-target binding, 5HT1A
Chain of h5HT1A (P08908 whole entry): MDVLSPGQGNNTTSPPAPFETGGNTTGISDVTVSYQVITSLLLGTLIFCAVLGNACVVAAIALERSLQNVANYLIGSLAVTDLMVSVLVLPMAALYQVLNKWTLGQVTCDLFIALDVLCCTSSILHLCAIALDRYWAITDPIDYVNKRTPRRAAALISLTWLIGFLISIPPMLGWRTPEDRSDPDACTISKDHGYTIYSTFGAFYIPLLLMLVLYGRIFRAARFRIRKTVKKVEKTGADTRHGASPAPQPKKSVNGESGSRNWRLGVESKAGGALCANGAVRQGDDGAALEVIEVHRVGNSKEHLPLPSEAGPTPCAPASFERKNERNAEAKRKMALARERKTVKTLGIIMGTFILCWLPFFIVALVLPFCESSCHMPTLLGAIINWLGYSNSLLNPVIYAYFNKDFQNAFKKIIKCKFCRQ

hH4 histamine receptor = hH4 histamine receptor (Homo sapiens (Human), UniProt Q9H3N8); assay: Off-target binding, H4
Chain of hH4 histamine receptor (Q9H3N8 whole entry): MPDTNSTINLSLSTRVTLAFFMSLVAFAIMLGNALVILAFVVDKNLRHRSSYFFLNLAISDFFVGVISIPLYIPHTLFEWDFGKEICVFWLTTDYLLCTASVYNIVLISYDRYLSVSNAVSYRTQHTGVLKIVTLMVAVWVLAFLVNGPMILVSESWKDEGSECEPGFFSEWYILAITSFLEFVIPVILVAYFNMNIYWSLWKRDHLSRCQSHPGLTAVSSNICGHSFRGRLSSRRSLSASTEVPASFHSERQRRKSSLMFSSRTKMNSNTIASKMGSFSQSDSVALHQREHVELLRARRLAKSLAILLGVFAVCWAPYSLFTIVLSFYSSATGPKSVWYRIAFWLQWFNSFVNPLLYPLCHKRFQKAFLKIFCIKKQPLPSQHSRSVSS
Source text: as §1

[3] = molecular target: Alpha 2C adrenergic receptor (Homo sapiens (Human), UniProt P18825); assay: Off-target binding, α2C
Chain of Alpha 2C adrenergic receptor (P18825 whole entry): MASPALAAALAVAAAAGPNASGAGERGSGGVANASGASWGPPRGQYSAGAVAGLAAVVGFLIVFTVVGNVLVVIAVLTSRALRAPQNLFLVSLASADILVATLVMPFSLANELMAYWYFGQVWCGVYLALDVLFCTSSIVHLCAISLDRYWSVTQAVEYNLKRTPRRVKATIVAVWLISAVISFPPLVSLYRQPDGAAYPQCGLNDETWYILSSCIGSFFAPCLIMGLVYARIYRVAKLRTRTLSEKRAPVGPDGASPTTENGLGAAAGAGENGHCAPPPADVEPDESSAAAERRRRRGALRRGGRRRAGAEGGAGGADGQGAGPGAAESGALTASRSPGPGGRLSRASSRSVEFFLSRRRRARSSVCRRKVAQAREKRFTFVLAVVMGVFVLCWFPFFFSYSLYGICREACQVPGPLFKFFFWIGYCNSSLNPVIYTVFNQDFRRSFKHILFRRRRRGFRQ
Source text: as §1

hA2AAR = hA2AAR (Homo sapiens (Human), UniProt P29274); assay: Radioligand binding at hA2AAR, HEK293 cell membranes, [3H]CGS21680; conditions: read-out: hA2AAR % inhibition
Chain of hA2AAR (P29274 whole entry): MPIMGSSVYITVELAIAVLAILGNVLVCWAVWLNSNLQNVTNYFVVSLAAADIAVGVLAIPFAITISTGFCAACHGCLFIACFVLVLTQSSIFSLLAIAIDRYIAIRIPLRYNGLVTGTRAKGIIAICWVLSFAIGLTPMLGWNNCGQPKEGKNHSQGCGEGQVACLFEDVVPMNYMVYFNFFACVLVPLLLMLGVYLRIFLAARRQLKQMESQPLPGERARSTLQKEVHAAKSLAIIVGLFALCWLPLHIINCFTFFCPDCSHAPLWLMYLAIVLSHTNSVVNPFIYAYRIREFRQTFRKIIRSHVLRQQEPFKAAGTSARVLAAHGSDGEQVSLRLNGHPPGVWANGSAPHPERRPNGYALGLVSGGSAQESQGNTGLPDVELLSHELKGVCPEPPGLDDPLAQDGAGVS

hA3AR = hA3AR (Homo sapiens (Human), UniProt P0DMS8); assay: Radioligand binding at hA3AR, CHO cell membranes, [125I]I-AB-MECA
hA1AR = hA1AR (Homo sapiens (Human), UniProt P30542); assay: Radioligand binding at hA1AR, CHO cell membranes, [3H]R-PIA; conditions: read-out: hA1AR % inhibition
Chain of hA1AR (P30542 whole entry): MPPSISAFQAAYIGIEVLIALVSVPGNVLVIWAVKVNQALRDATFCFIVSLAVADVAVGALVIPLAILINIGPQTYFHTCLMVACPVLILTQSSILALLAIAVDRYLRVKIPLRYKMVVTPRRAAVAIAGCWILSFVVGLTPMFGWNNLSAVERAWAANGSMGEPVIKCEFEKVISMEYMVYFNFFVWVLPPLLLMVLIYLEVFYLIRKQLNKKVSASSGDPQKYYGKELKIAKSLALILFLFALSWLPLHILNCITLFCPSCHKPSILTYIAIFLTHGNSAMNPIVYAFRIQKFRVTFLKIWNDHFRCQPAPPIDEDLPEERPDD

mA3AR = mA3AR (Mus musculus (Mouse), UniProt Q61618); assay: Competition binding at mA3AR, HEK293 cell membranes
Chain of mA3AR (Q61618 whole entry): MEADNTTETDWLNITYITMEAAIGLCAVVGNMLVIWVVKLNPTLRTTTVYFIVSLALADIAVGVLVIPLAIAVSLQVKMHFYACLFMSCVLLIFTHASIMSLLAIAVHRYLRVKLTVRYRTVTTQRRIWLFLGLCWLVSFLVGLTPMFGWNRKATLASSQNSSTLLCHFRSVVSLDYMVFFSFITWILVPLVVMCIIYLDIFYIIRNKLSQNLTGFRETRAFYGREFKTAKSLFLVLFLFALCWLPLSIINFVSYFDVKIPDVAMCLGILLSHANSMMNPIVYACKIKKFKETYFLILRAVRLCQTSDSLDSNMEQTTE

mA2AAR = mA2AAR (Mus musculus (Mouse), UniProt Q60613); assay: Competition binding at mA2AAR, HEK293 cell membranes; conditions: read-out: A2AAR % inhibition, mouse data (m) (converted)
Chain of mA2AAR (Q60613 whole entry): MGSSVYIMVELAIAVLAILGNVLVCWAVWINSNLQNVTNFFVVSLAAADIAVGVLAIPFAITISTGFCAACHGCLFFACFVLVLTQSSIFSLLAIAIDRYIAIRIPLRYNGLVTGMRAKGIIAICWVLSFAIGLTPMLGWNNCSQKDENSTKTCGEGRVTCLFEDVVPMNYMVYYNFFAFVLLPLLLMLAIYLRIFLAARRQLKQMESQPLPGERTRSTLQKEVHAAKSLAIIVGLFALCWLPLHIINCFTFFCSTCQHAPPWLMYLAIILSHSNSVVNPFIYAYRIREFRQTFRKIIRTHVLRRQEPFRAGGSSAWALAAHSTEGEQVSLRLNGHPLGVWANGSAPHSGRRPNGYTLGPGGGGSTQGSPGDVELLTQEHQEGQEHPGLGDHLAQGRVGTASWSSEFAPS

[4] = tested on: muscarinic, adrenergic, dopamine, GABA, histamine, opiate, serotonin receptors and transporters; assay: Off-target binding panel (receptors and transporters of Table 5); conditions: for Interactions at other receptors of the off-target panel: 10 μM
Source text: as §1

mA1AR = mA1AR (Mus musculus (Mouse), UniProt Q60612); assay: Competition binding at mA1AR, HEK293 cell membranes; conditions: read-out: A1AR % inhibition, mouse data (m)
Chain of mA1AR (Q60612 whole entry): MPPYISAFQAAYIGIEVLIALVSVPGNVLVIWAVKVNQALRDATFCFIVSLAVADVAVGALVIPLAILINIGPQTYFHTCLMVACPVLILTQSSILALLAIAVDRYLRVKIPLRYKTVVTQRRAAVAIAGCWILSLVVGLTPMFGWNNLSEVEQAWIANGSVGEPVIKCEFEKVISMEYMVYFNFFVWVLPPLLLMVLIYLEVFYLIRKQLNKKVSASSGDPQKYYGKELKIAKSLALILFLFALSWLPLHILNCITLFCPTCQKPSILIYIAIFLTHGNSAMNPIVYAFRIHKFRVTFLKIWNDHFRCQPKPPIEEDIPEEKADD

[5] = tested on: chronic constriction injury model of neuropathic pain; assay: CCI model of neuropathic pain, reversal of mechano-allodynia; format: in vivo, mice; conditions: for Max. effect Emax (% ± SEM) / Time of peak protection: ipsilateral hind paw; for Duration of action / Efficacy in reversing NP in vivo (of full reversal at peak effect): CCI model
human DAT = human DAT (Homo sapiens (Human), UniProt Q01959); assay: Radioligand ([3H]WIN35428) binding at the dopamine transporter; conditions: for Ki: off-target binding
Chain of human DAT (Q01959 whole entry): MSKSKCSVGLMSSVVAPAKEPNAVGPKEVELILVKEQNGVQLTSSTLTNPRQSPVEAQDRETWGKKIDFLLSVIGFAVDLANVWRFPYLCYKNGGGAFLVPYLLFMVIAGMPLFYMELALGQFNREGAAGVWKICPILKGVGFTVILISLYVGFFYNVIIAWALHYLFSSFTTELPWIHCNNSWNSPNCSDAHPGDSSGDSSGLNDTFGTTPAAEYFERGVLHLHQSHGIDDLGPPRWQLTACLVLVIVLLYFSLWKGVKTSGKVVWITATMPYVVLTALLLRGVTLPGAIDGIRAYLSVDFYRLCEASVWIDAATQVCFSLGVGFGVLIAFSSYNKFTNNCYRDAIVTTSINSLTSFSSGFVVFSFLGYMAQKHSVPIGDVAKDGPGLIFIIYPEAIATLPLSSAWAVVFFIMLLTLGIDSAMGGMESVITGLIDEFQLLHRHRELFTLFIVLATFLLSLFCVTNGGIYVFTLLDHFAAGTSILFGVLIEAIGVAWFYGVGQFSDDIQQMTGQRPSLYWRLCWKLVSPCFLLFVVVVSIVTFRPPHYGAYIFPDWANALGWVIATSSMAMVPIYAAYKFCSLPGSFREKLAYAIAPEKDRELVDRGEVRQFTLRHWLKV

[6] = Stability in simulated fluids (gastric, intestinal); format: in vitro ADME
Source text: In vitro stability parameters for selected compounds are set forth in Table 6, in accordance with an embodiment of the invention.

r Sigma 1 = r Sigma 1 (Rattus norvegicus (Rat), UniProt Q9R0C9); assay: Off-target binding, Sigma-1; conditions: 10 μM
Source text: as §1

morphine-dependent rats = conditions: naloxone-precipitated withdrawal in morphine-dependent rats; cited from earlier work
[7] = tested on: chronic constriction injury (CCI) model, mechano-allodynia; assay: Morphine analgesic tolerance in CCI model, co-administration with A3AR agonist; format: in vivo, mice
Sprague Dawley rats = assay: Toxicity of MRS5698 dosed by gavage; format: in vivo, rat; conditions: up to 150 mg/kg by gavage
Description: The formulation was dosed at up to 150 mg/kg by gavage to Sprague Dawley rats.

[8] = tested on: 5 CYP isozymes (1A2, 2C9, 2C19, 2D6, 3A4); assay: Inhibition of 5 CYP isozymes; format: in vitro ADME

Q: Which results are given for `CNC(=O)C12CC1C(n1cnc3c(NCc4cccc(Cl)c4)nc(C#Cc4ccc(F)c(F)c4)nc31)C(O)C2O` (single isomer, unassigned) [MRS5698]?
A: Ki (hM2 muscarinic receptor; read-out: Ki at M2): 5400 nM; Ki (hM2 muscarinic receptor; read-out: Ki class at M2): 1000 to 10000 nM; Ki (h5HT2B; read-out: Ki at 5HT2B): 2600 nM; Ki (h5HT2B; read-out: Ki class at 5HT2B): 1000 to 10000 nM; Ki ([1]; read-out: Ki at α2B): 2900 nM and 4800 nM; Ki ([1]; read-out: Ki class at α2B): 1000 to 10000 nM; Ki (DOR opiate receptor; read-out: Ki at DOR): 2500 nM; Ki (DOR opiate receptor; read-out: Ki class at DOR): 1000 to 10000 nM; Ki (PBR; read-out: Ki at PBR): 340 nM; Ki (PBR; read-out: Ki class at PBR): < 1000 nM; Ki (r Sigma 2; read-out: Ki at Sigma-2 (σ2)): 910 nM; Ki (r Sigma 2; read-out: Ki class at σ2): < 1000 nM; Ki (h5HT2C; Ki at 5HT2C): 5800 nM; Ki (h5HT2C; Ki class at 5HT2C): 1000 to 10000 nM; Ki ([2]; read-out: Ki at β3): 5800 nM; Ki ([2]; read-out: Ki class at β3): 1000 to 10000 nM; Ki (h5HT1A; read-out: Ki at 5HT1A): 7600 nM; Ki (h5HT1A; read-out: Ki class at 5HT1A): 1000 to 10000 nM; Ki (hH4 histamine receptor; read-out: Ki at H4): 9400 nM; Ki (hH4 histamine receptor; read-out: Ki class at H4): 1000 to 10000 nM; Ki ([3]; read-out: Ki at α2C): 2000 nM; Ki ([3]; read-out: Ki class at α2C): 1000 to 10000 nM

Q: Which inhibition at 10 µM (hA2AAR) does the source give for `CNC(=O)[C@@]12C[C@@H]1[C@@H](n1cnc3c(/C=C(\O)c4ccc(C(C)(C)C)cc4)nc(C#Cc4ccc(C(C)(C)C)cc4)nc31)C(O)C2O` (stereo in doubt) [Compound 40, (1S,2S,3R,4R,5S)-4-(6-((Z)-2-(4-(tert-Butyl)phenyl)-2-hydroxyvinyl)-2-((4-(tert-butyl)phenyl)ethynyl)-9H-purin-9-yl)-2,3-dihydroxy-N-methylbicyclo[3.1.0]hexane-1-carboxamide] here?
A: 16 ± 7%

Q: And the Ki (hA3AR)?
A: 78.5 ± 19.8 nM

Q: What about the inhibition at 10 µM (hA1AR) of the same molecule?
A: 16 ± 5%

Q: And the Ki (mA3AR)?
A: 136 ± 9 nM

Q: For `CNC(=O)[C@@]12C[C@@H]1[C@@H](n1cnc3c(NC)nc(C#Cc4cccs4)nc31)[C@H](O)[C@@H]2O` [Compound 8, (1S,2R,3S,4R,5S)-2,3-Dihydroxy-N-methyl-4-(6-(methylamino)-2-(thiophen-2-ylethynyl)-9H-purin-9-yl)bicyclo[3.1.0]hexane-1-carboxamide], which inhibition at 10 µM (mA2AAR) is on record?
A: 3%

Q: What about the Ki ([1]; read-out: Ki at α2B) of the same molecule?
A: 5500 nM

Q: What about the “Off-target effects compared with MRS5698 and MRS5676” value [4] of the same molecule?
A: significantly fewer off-target effects

Q: And the “Interactions at other receptors of the off-target panel” value (from here on “Interactions at other receptors”) [4]?
A: No interactions at other receptors

Q: And the inhibition at 10 µM (mA1AR)?
A: 47%

Q: And the inhibition at 10 µM (hA2AAR)?
A: 20 ± 6%

Q: What about the “Max. effect Emax (% ± SEM)” value ([5]; 3 μmol/kg p.o., mice) of the same molecule?
A: 100 ± 0.0%

Q: And the “Time of peak protection” value ([5]; 3 μmol/kg p.o., mice)?
A: 1 h

Q: And the Duration of action [5]?
A: ~3 h

Q: What about the “Efficacy in reversing NP in vivo (of full reversal at peak effect)” value [5] of the same molecule?
A: ~100%

Q: And the inhibition at 10 µM (hA1AR)?
A: 25%

Q: What about the Ki (human DAT; read-out: Ki at DAT) of the same molecule?
A: 760 nM

Q: What about the Ki (human DAT; read-out: Ki class at DAT) of the same molecule?
A: < 1000 nM

Q: What about the Ki (mA3AR) of the same molecule?
A: 43 ± 2 nM

Q: Which results are given for `CNC(=O)[C@@]12C[C@@H]1[C@@H](n1cnc3c(NC)nc(C#Cc4ccco4)nc31)[C@H](O)[C@@H]2O` [Compound 17, (1S,2R,3S,4R,5S)-4-(2-(Furan-2-ylethynyl)-6-(methylamino)-9H-purin-9-yl)-2,3-dihydroxy-N-methylbicyclo[3.1.0]hexane-1-carboxamide]?
A: inhibition at 10 µM (mA2AAR): 17%; half-life ([6]; simulated gastric fluid, read-out: Stability in simulated fluids (t1/2, min): Gastric): > 480 min; half-life ([6]; simulated intestinal fluid, read-out: Stability in simulated fluids (t1/2, min): Intestinal): > 480 min; Off-target effects compared with MRS5698 and MRS5676 [4]: significantly fewer off-target effects; Interactions at other receptors of the off-target panel [4]: No interactions; inhibition at 10 µM (mA1AR): 59%; inhibition at 10 µM (hA2AAR): 18 ± 9%; Effect at 3 h (% ± SEM) ([5]; 3 μmol/kg p.o., mice, 3 h): 27.6 ± 1.3%; Max. effect Emax (% ± SEM) ([5]; 3 μmol/kg p.o., mice): 100 ± 0.0%; Time of peak protection ([5]; 3 μmol/kg p.o., mice): 1 h; Duration of action [5]: ~3 h; Efficacy in reversing NP in vivo (of full reversal at peak effect) [5]: ~100%; Ki (hA3AR): 0.62 ± 0.06 nM; inhibition at 10 µM (hA1AR): 30%; Ki (mA3AR): 54 ± 11 nM; Interaction at PBR (PBR): weak interactions; Interaction at Sigma-2 (r Sigma 2): weak interactions; Interaction at Sigma-1 (r Sigma 1): weak interactions

Q: Which inhibition at 10 µM (mA2AAR) does the source give for `CNC(=O)[C@@]12C[C@@H]1[C@@H](n1cnc3c(NC)nc(C#Cc4cnn(C)c4)nc31)[C@H](O)[C@@H]2O` [Compound 18, (1S,2R,3S,4R,5S)-2,3-Dihydroxy-N-methyl-4-(2-((1-methyl-1H-pyrazol-4-yl)ethynyl)-6-(methylamino)-9H-purin-9-yl)bicyclo[3.1.0]hexane-1-carboxamide] here?
A: 16%

Q: And the “Off-target effects compared with MRS5698 and MRS5676” value [4]?
A: significantly fewer off-target effects

Q: And the “Interactions at other receptors” value [4]?
A: No interactions

Q: And the inhibition at 10 µM (mA1AR)?
A: 72%

Q: And the inhibition at 10 µM (hA2AAR)?
A: 12 ± 6%

Q: What about the “Max. effect Emax (% ± SEM)” value ([5]; 3 μmol/kg p.o., mice) of the same molecule?
A: 87.3 ± 12.7%

Q: What about the “Time of peak protection” value ([5]; 3 μmol/kg p.o., mice) of the same molecule?
A: 1 h

Q: And the “Efficacy in reversing NP in vivo (of full reversal at peak effect)” value [5]?
A: ~100%

Q: And the inhibition at 10 µM (hA1AR)?
A: 35%

Q: What about the “Interaction at PBR” value (PBR) of the same molecule?
A: weak interactions

Q: What about the “Interaction at Sigma-2” value (r Sigma 2) of the same molecule?
A: weak interactions

Q: What about the “Interaction at Sigma-1” value (r Sigma 1) of the same molecule?
A: weak interactions

Q: With `CNC(=O)[C@H]1O[C@@H](n2cnc3c(NCc4cccc(I)c4)ncnc32)[C@H](O)[C@@H]1O` [IB-MECA] as the molecule, how does the “Effect on opioid dependence” value (morphine-dependent rats) read?
A: block opioid dependence

Q: With `CNC(=O)[C@@]12C[C@@H]1[C@@H](n1cnc3c(NCc4cccc(Cl)c4)nc(C#Cc4ccc(F)c(F)c4)nc31)C(O)[C@H]2O` (stereo partly drawn) [MRS5698, reference compound] as the molecule, how does the “Analgesic effect of the A3AR agonist dose per se” value ([7]; […]) read?
A: no analgesic effects per se

Q: And the “Interactions at other receptors” value [4]?
A: No interactions at other receptors

Q: And the “Interaction with DAT” value (human DAT)?
A: does not interact with DAT

Q: And the “Findings after oral dosing” value (Sprague Dawley rats)?
A: No abnormal findings

Q: Which IC50 [8] does the source give for `CNC(=O)[C@]12CC1[C@@H](n1cnc3c(NC)nc(C#Cc4ccc(Br)s4)nc31)[C@H](O)C2O` (stereo partly drawn) [compound 100] here?
A: > 7000 nM

Q: What does the source list for `CN1CC[C@]23c4c5ccc(O)c4O[C@H]2[C@@H](O)C=C[C@H]3[C@H]1C5` [morphine]?
A: Reversal of mechano-allodynia by morphine alone on daily dosing ([7]; given daily over 25 days): loses its ability to reverse mechano-allodynia; Reversal of mechano-allodynia by morphine alone ([7]; s.c. injection at day 7): near-to-maximal reversal of mechano-allodynia
